≈ marks a conversion by molar mass, not a printed value. Where two headings read alike, the source gives them in different places.

The test system of assay [1] is E. coli. As to the kind of experiment: Minimum inhibitory concentration, E. coli. The class given is cell-based. To be noted: Escherichia coli.
In assay [2] the test system is Proteus mirabilis. As to the kind of experiment: Minimum inhibitory concentration, Proteus mirabilis. The class given is cell-based.
The subject of assay [3] is Proteus vulgaris. As to the kind of experiment: Minimum inhibitory concentration, Proteus vulgaris. The class given is cell-based.
Assay [4] concerns Klebsiella aeruginosa. Put plainly: Minimum inhibitory concentration, Klebsiella aeruginosa. Type of assay: cell-based.
Assay [5] concerns S. typhimurium. Put plainly: Minimum inhibitory concentration, S. typhimurium. Type of assay: cell-based. Particulars: Salmonella enterica.
Assay [6] concerns E. coli. As to the kind of experiment: Mice infected with E. coli, CD50 (Tables I, II, IV). Particulars: Escherichia coli. The class given is in vivo. As for the experimental part: (§1) Typical of the compounds of the class are very active antimicrobial agents, especially against gram-negative bacteria, in particular E. coli. For instance, the following values of the CD50 were determined on administering the listed compounds of formula I, in which R1 is as defined in the following Table I, Antimicrobial Activity, R2 and R3 are hydrogen and wherein R4 is sodium to mice infected with the bacteria shown.
(§2) CD50 = Dose in mg of compound/kg of mouse body weight which cures th
(§3) infection in 50% of the animals

Assay [7] relates to B. proteus. Put plainly: Mice infected with B. proteus, CD50. Type of assay: in vivo. Particulars: Mus musculus. Here is the method: as §1, §2, §3
(§4) The compounds of the invention also show effectiveness against other gram-negative bacteria.

Assay [8] relates to Klebsiella pneumoniae. As to the kind of experiment: Mice infected with Klebsiella pneumoniae, CD50. The class given is in vivo. Here is the method: as §1, §2, §3, §4
The test system of assay [9] is Proteus mirabilis. As to the kind of experiment: Mice infected with Proteus mirabilis, CD50 (Table II). The class given is in vivo. Particulars: read-out: DC50 (the source's name).
From the text: as §2, §3

The test system of assay [10] is Proteus vulgaris. Put plainly: Mice infected with Proteus vulgaris, CD50 (Table II). To be noted: read-out: DC50 (the source's name). The class given is in vivo.
From the text: as §2, §3

In assay [11] the test system is Klebsiella aeruginosa. As to the kind of experiment: Mice infected with Klebsiella aeruginosa, CD50 (Table II). Particulars: read-out: DC50 (the source's name). Type of assay: in vivo.
From the text: as §2, §3

The mark [12] stands for this setting: po, Table I, mice infected with E. coli, p.o., R4 = sodium, read-out: CD50 (the source's name).
[13] abbreviates: sc, Table I, mice infected with E. coli, s.c., R4 = sodium, read-out: CD50 (the source's name).
Setting [14] is: sc, Table II, infected mice, E. coli, s.c., read-out: DC50 (the source's name).

The term MIC denotes the lowest concentration that inhibits growth of the organism. The low end stands for inhibition by little substance, the high end for a need for much substance. As for `Cc1ccc2c(c1)C=NN(S(=O)(=O)CC(C)C)B2O`, the MIC was 2 µg/mL (≈ 7.14 µM) in assay [1]; 8 µg/mL (≈ 28.6 µM) in assay [2]; 4 µg/mL (≈ 14.3 µM) in assay [3]; 2 µg/mL (≈ 7.14 µM) in assay [4]; 8 µg/mL (≈ 28.6 µM) in [5].
On to `Nc1ccc(S(=O)(=O)N2N=Cc3ccccc3B2O)c(Cl)c1` [1-hydroxy-2(2'-chloro-4'-amino-phenylsulfonyl) benzo-2,3,1-diazaborine, reference compound], for which the ED50 in assay [6] (po, Table IV, comparative, E. coli, p.o., read-out: CD50 (the source's name)) worked out at 36 mg/kg; in assay [6] (sc, Table IV, comparative, E. coli, s.c., read-out: CD50 (the source's name)), 13.5 mg/kg.
Consider `CCCCCS(=O)(=O)N1N=Cc2ccccc2B1O` [(CH2)4CH3, H], for which the minimal inhibitory concentration (MIC) in [1] was found to be 32 µg/mL (≈ 114 µM); in [2], 32 µg/mL (≈ 114 µM); in [3], 32 µg/mL (≈ 114 µM); in assay [4] it was 8 µg/mL (≈ 28.6 µM); in assay [5], 16 µg/mL (≈ 57.1 µM).
`O=S(=O)(CCCCl)N1N=Cc2cc(F)ccc2B1O` [CH2CH2CH2 Cl, F]: the MIC in [1] was found to be 16 µg/mL (≈ 52.5 µM); in assay [2], 16 µg/mL (≈ 52.5 µM); in [3], 8 µg/mL (≈ 26.3 µM); in assay [4] it was 8 µg/mL (≈ 26.3 µM); in assay [5], 4 µg/mL (≈ 13.1 µM).
Take `CCc1ccc2c(c1)C=NN(S(=O)(=O)CCCCl)B2O` [CH2CH2CH2Cl, C2 H5]: the MIC in [1] was found to be 4 µg/mL (≈ 12.7 µM); in assay [2], 2 µg/mL (≈ 6.36 µM); in assay [3], 4 µg/mL (≈ 12.7 µM); in assay [4], 2 µg/mL (≈ 6.36 µM); in assay [5], 2 µg/mL (≈ 6.36 µM).
Consider `CCCS(=O)(=O)N1N=Cc2cc(CC)ccc2B1O` [CH2CH2CH3, C2 H5], for which the minimum inhibitory concentration (MIC) in assay [1] was 4 µg/mL (≈ 14.3 µM); in assay [2], 8 µg/mL (≈ 28.6 µM); in assay [3], 2 µg/mL (≈ 7.14 µM); in assay [4] it was 1 µg/mL (≈ 3.57 µM); in assay [5] it was 2 µg/mL (≈ 7.14 µM).
In the case of `CCS(=O)(=O)N1N=Cc2ccccc2B1O` [Compound 1], the ED50 was 11 mg/kg in assay [6] (setting [12]) and 9.8 mg/kg in assay [6] (setting [13]).
`CCCS(=O)(=O)N1N=Cc2ccccc2B1O` [Compound 2]: the ED50 amounted to 7 mg/kg in [6] (setting [12]); 6.7 mg/kg in [6] (setting [13]); 18.7 mg/kg in assay [7] (per oral (p.o.)); 11.7 mg/kg in [7] (sc, subcutaneous (s.c.)); 11.3 mg/kg in assay [8] (po); 6.75 mg/kg in assay [8] (sc). Further, the MIC in assay [1] was 4 µg/mL (≈ 15.9 µM); in assay [2], 32 µg/mL (≈ 127 µM); in assay [3], 32 µg/mL (≈ 127 µM); in assay [4], 8 µg/mL (≈ 31.7 µM); in [5] it was 16 µg/mL (≈ 63.5 µM).
`CC(C)S(=O)(=O)N1N=Cc2ccccc2B1O` [Compound 3]: the values for the ED50 in assay [6] (setting [12]) and in [6] (setting [13]) were 12.5 mg/kg and 9.2 mg/kg, respectively.
`CCCCS(=O)(=O)N1N=Cc2ccccc2B1O` [Compound 4]: the ED50 was found to be 11.2 mg/kg in [6] (setting [12]) and 5.85 mg/kg in assay [6] (setting [13]).
For `C=CCS(=O)(=O)N1N=Cc2ccccc2B1O` [Compound 6], the ED50 in [6] (setting [12]) and in [6] (setting [13]) was 13.2 mg/kg each time.
In the case of `O=S(=O)(CCl)N1N=Cc2ccccc2B1O` [Compound 7], the results for the ED50 in [6] (setting [12]) and in assay [6] (setting [13]) were 12.4 mg/kg and 11.8 mg/kg, respectively.
On to `CC(Cl)S(=O)(=O)N1N=Cc2ccccc2B1O` (stereo not shown) [Compound 8], for which the ED50 worked out at 17.7 mg/kg in assay [6] (setting [12]) and 14.8 mg/kg in assay [6] (setting [13]).
`O=S(=O)(CCCCl)N1N=Cc2ccccc2B1O` [Compound 9]: the figures for the ED50 in assay [6] (setting [12]) and in assay [6] (setting [13]) were 22.7 mg/kg and 21.8 mg/kg, respectively.
`Cc1ccc2c(c1)C=NN(S(=O)(=O)CCCCl)B2O` [Compound 10]: the ED50 in assay [6] (po, read-out: DC50) amounted to 9.8 mg/kg; in assay [6] (setting [14]), 8.8 mg/kg; in assay [9] (po), 9.15 mg/kg; in assay [9] (sc) it was 7.45 mg/kg; in assay [10] (po), 8.6 mg/kg; in assay [10] (sc) it was 8.4 mg/kg. Further, the ED50 in assay [11] (po) is 9.15 mg/kg; in [11] (sc), 6.95 mg/kg. In addition, the minimal inhibitory concentration (MIC) is 2 µg/mL (≈ 6.65 µM) in [1]; 4 µg/mL (≈ 13.3 µM) in assay [2]; 4 µg/mL (≈ 13.3 µM) in assay [3]; 1 µg/mL (≈ 3.33 µM) in assay [4]; 1 µg/mL (≈ 3.33 µM) in assay [5].
Take `CCCS(=O)(=O)N1N=Cc2cc(F)ccc2B1O` [Compound 11]: the ED50 was 6.95 mg/kg in assay [6] (po, read-out: DC50); 5.65 mg/kg in [6] (setting [14]); 13.9 mg/kg in assay [9] (po); 7.45 mg/kg in assay [9] (sc); 13.9 mg/kg in assay [10] (po); 7.45 mg/kg in assay [10] (sc). The values for the ED50 in assay [11] (po) and in assay [11] (sc) were 5.65 mg/kg and 4.25 mg/kg, respectively. Moreover, the minimum inhibitory concentration (MIC) was determined as 4 µg/mL (≈ 14.8 µM) in [1]; 4 µg/mL (≈ 14.8 µM) in assay [2]; 4 µg/mL (≈ 14.8 µM) in assay [3]; 8 µg/mL (≈ 29.6 µM) in assay [4]; 8 µg/mL (≈ 29.6 µM) in assay [5].
With `CC(C)CS(=O)(=O)N1N=Cc2ccccc2B1O` [drawing 2], the ED50 in assay [6] (po, read-out: CD50) was found to be 8.85 mg/kg; in [6] (sc, read-out: CD50) it was 10.6 mg/kg.
For `CC(C)CS(=O)(=O)N1N=Cc2ccccc2B1O` [drawing 4], the MIC is 8 µg/mL (≈ 30.1 µM) in [1]; 16 µg/mL (≈ 60.1 µM) in assay [2]; 16 µg/mL (≈ 60.1 µM) in assay [3]; 4 µg/mL (≈ 15 µM) in assay [4]; 4 µg/mL (≈ 15 µM) in assay [5].

The values above are taken from patent US4199573A, “Diazaborines and drug compositions” (Grunenthal GmbH, priority 1978, dated 1980).
